Assay results: PubChem BioAssay (NCI)
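Five compound concentrations were applied to cells in 96-well plates for 48 hours; endpoints were derived by simple linear interpolation of the resulting dose-response curve. GI50: concentration for 50% inhibition of growth. TGI is the concentration that stops growth completely.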

What was measured:
Test in all cases: NCI anticancer screen, dose series, 48 h
ACHN renal = system: ACHN renal
CCRF-CEM leukemia = system: CCRF-CEM leukemia
COLO 205 colon = system: COLO 205 colon
DU-145 prostate = system: DU-145 prostate
HCC-2998 colon = system: HCC-2998 colon
HOP-62 NSCLC = system: HOP-62 NSCLC
HS 578T breast = system: HS 578T breast
MALME-3M melanoma = system: MALME-3M melanoma
UACC-257 melanoma = system: UACC-257 melanoma
UACC-62 melanoma = system: UACC-62 melanoma

SMILES	GI50 (ACHN renal) [µM]	TGI (ACHN renal) [µM]	GI50 (CCRF-CEM leukemia) [µM]	TGI (CCRF-CEM leukemia) [µM]	GI50 (COLO 205 colon) [µM]	TGI (COLO 205 colon) [µM]	GI50 (DU-145 prostate) [µM]	TGI (DU-145 prostate) [µM]	GI50 (HCC-2998 colon) [µM]	TGI (HCC-2998 colon) [µM]	GI50 (HOP-62 NSCLC) [µM]	TGI (HOP-62 NSCLC) [µM]	GI50 (HS 578T breast) [µM]	TGI (HS 578T breast) [µM]	GI50 (MALME-3M melanoma) [µM]	TGI (MALME-3M melanoma) [µM]	GI50 (UACC-257 melanoma) [µM]	TGI (UACC-257 melanoma) [µM]	GI50 (UACC-62 melanoma) [µM]	TGI (UACC-62 melanoma) [µM]
COc1cccc(-c2c[nH]c3c(N/N=C/c4ccncc4)ncnc23)c1	1.37	> 22.9	1.93	> 25	1.2	4.39	2.23	> 15.2	4.36	15.8	3.74	> 15.3	0.816	9.97	8.58	20.9	6.02	17.5	2.8	6.31
COc1cc2nc(N3CCCC3)nc(NCc3ccccc3)c2cc1OC	1.89	3.89	2.55	8.07	1.45	3.14	4.62	16.5	2.13	4.25	12.3	26.9	1.99	4.5	1.84	3.34	1.96	4.04	2.28	5.39
Cc1cc(NC(=O)NC(=O)c2ccccc2NC(=O)C(C)N)ccc1Oc1ncc(Br)cn1 (stereo not given)	–	27.4	–	17.4	–	0.852	–	19.2	–	4.38	–	4.3	–	1.49	–	33.4	–	32.6	–	15.5
C/C(=N/NC(=S)N1CCCCC1)c1ccccc1O	–	> 31.6	–	> 31.6	–	> 31.6	–	> 31.6	–	> 31.6	–	> 100	–	> 31.6	–	> 31.6	–	> 31.6	–	> 31.6
CC(C)(C)C(=O)OCC1C(=O)OCC1C(=O)N1Cc2cc3ccccc3nc2C1 (stereo not given)	–	7.54	–	5.89	–	2.41	–	30.2	–	29.3	–	22	–	64.3	–	2.98	–	13.4	–	15.7
O=C1/C(=C/c2ccccc2)CN(C(=O)CCN2CCOCC2)C/C1=C\c1ccccc1	–	11.3	–	9.81	–	7.67	–	29.5	–	3.68	–	17.3	–	13.1	–	6.32	–	4.99	–	3.52
CC1(C)CC(O)C(C)(C)[C@@H](O)C1 (stereo not given in full)	–	> 100	–	> 100	–	> 100	–	> 100	–	> 100	–	> 100	–	> 100	–	> 100	–	> 100	–	> 100
C[C@@H]1[C@H](C)N1CC(O)Cn1ccnc1[N+](=O)[O-] (stereo not given in full)	–	> 100	–	> 100	–	> 100	–	> 100	–	> 100	–	> 100	–	> 100	–	> 100	–	> 100	–	> 100
Cc1ccccc1OCC(O)CN1CCN(c2ccc(Cl)cc2)CC1 (stereo not given)	18.8	42.2	16.4	44.1	15.7	30.3	17.9	32.7	16.7	31.6	15.9	32.3	21.4	68.7	15.2	31.2	20.6	37.9	13.8	27.5
